Experimental data: patent US9956291B2, “Nanoformulation and methods of use of thyroid receptor beta1 agonists for liver targeting” (priority 2012, dated 2018)

What was measured:
[1] = in vivo; cited from earlier work
LDLR [2] = assay: Test for LDLR up-regulation in HepG2 cells (endogenous LDLR); assay type: cell-based, human
Experimental: (§1) The expression vector of human LDLR was constructed under the control of the cytomegalovirus promoter-enhancer (pCMV-LDLR). These constructs were used to transiently transfect mammalian cells, and cells were subjected to SDS-PAGE and immunoblot analysis using an LDLR antibody. […] Using this assay, compounds were tested for their ability to reduce the degradation of the LDLR. HEK-293 cells grown in 96-well plates overnight and transfected with LDLR were used. Compounds dissolved in DMSO or vehicle were added to the culture media, and incubated for 24-48 hours. The cells were then lysed. Both cell lysate and supernatant are subjected to quantitation using the above immunoassay. Compounds that increase the up-regulation of LDLR were selected. A similar assay was implemented using the HepG2 cells, since these cells express the LDLR endogenously.

LDLR [3] = assay: Test for LDLR up-regulation in transfected HEK-293 cells; assay type: cell-based, human
Experimental: as §1

high fat diet mice = assay: Nutritionally-induced hypercholesterolemia model (high fat diet mice); assay type: in vivo
Experimental: Mice were fed a high fat diet (TD.06414, Harlan Research Diet, Inc., Indianapolis, Ind.) that provides […] from fat sources increased total cholesterol. […] Male C57BL/6 mice were fed either a commercial chow diet (Prolab RMH 3000, PMI feeds, St. Louis, Mo.) to serve as a negative control, or a high fat diet (TD.06414). Plasma was collected once weekly to monitor the level of LDL-C, total cholesterol, HDL-C, and triglyceride. […] One group was treated with vehicle, and the other groups are treated with TRβ1 agonist compounds versus its Nano-targeted ones at different doses.
High-fat diet (HFD)-induced dyslipidemia in mice. FIG. 12 depicts dose-ranging of Chitosan-PLGA NP-encapsulated GC-1 and conjugated with Glycyrrhetinic acid versus un-encapsulated GC-1 for lowering total cholesterol in HFD mice, in accordance with embodiments of the present invention.

[4] = cited from earlier work
cartilage = conditions: dogs, up to 12 months; cited from earlier work
[5] = moderately overweight and hypercholesterolemic subjects, two weeks

Compound | serum cholesterol and triglyceride [1] | LDLR up-regulation (LDLR [2]) | LDLR up-regulation (LDLR [3]) | reduction of serum total cholesterol (high fat diet mice; 0.1 mg/Kg daily for 6 days) | effects on the heart [4, 5] | serum total and LDL cholesterol, apoB levels [4, 5] | cartilage damage (cartilage) | dose of maximum effect on total cholesterol (toward normal regular diet levels) (high fat diet mice; IP daily, week 1 and week 2) | lowering of total cholesterol (high fat diet mice; IP daily, week 1 and week 2, dose-ranging) | lowering serum cholesterol and triglyceride ([4]; Phase I clinical trial)
CC(C)c1cc(Oc2c(Br)cc(NC(=O)CC(=O)O)cc2Br)ccc1O [KB-2115] | lower serum cholesterol and triglyceride | None of the TR beta agonists including GC-1, KB-2115 or their nanoformulations resulted in any significant changes | None of the TR beta agonists including GC-1, KB-2115 or their nanoformulations resulted in any significant changes | 60-80% | without detectable effects on the heart | reduced | Cartilage damage was observed | – | – | –
Cc1cc(OCC(=O)O)cc(C)c1Cc1ccc(O)c(C(C)C)c1 [GC-1] | lower serum cholesterol and triglyceride | None of the TR beta agonists including GC-1, KB-2115 or their nanoformulations resulted in any significant changes | None of the TR beta agonists including GC-1, KB-2115 or their nanoformulations resulted in any significant changes | – | – | – | – | 1.0 mg/kg | dose-dependent lowering of total cholesterol | effective in lowering serum cholesterol and triglyceride
